1 molecule from patent US8461344B2, “Polymorph forms of (2S)-(4E)-N-methyl-5-[3-(5-isopropdxypyridin)yl]-4-penten-2-amine” (Targacept, Inc., priority 2006, dated 2013) can be followed below.

This assay has as its target CNS nicotinic receptors. The experiment in a line: Binding to relevant receptor sites. The settings on record: free base used to prepare the salt forms, stated in words only. The protocol:
Receptor binding constants provide a measure of the ability of the compound to bind to half of the relevant receptor sites of certain brain cells of the patient. See, Cheng, et al., Biochem. Pharmacol. 22:3099 (1973). The (2S)-(4E)-N-methyl-5-[3-(5-isopropoxypyridin)yl]-4-penten-2-amine compound used to prepare the salt forms has extremely high affinity for the relevant receptors, with a binding affinity in the low nM range.
Binding of the compounds to relevant receptor sites was determined in accordance with the techniques described in U.S. Pat. No. 6,953,855 to Mazurov et al. Inhibition constants (Ki values), reported in nM, were calculated from the IC50 values using the method of Cheng et al., Biochem, Pharmacol. 22:3099 (1973).

On to `CN[C@@H](C)C/C=C/c1cncc(OC(C)C)c1` [(2S)-(4E)-N-methyl-5-[3-(5-isopropoxypyridin)yl]-4-penten-2-amine], for which the binding affinity entry is “low nM range”.
